Results on three compounds are retold here after patent US20080269188A1, “Oatp-C Gene C463a Polymorphism Underlies Variable Response to Statin Therapy” (INSERM, priority 2005, published 2008).

Marks after values point to notes of the source that are not given here.

For assay [1] the following is noted: taken from Buse J., Clinical Diabetes 2003; cited from earlier work.
Assay [2] in a line: FAME study: plasma lipid response to Fluvastatin XL 80 mg in elderly patients with primary hypercholesterolemia, overall and by OATP-C C463A (Pro155Thr) genotype. Format: in vivo, human. The method, then: The characteristics of the study subjects have been previously reported.^26 Patients were enrolled in a large scale, randomized, double-blind, placebo-controlled multicenter study conducted in France, Italy, Spain, Belgium and Israel. Initially, the aim of this study was to investigate the efficacy and safety of extended-release (XL) Fluvastatin 80 mg once daily for up to one year in elderly patients with primary hypercholesterolemia. The study was approved by the relevant Ethic Committees, and informed consent Was given by all subjects before entering the study. Men or women, aged 70-85 years, with primary hypercholesterolemia (total cholesterol ≧251 mg/dL, triglycerides ≦407 mg/dL and LDL cholesterol ≧159 mg/dL after dietary intervention) were eligible for inclusion. […] OATP-C genotypes were determined in 420 subjects from the Fluvastatin arm of the study.
For each subject, plasma lipid response was calculated based on values obtained at baseline (week—2) and 2 months after treatment. Laboratory methods for lipid and lipoprotein measurements are described elsewhere 26; all parameters were measured at a central laboratory. […] Endpoint fluorescence (FAM™, VIC® or both), corresponding to cleavage of the allele-specific probe (allelic discrimination) was measured using an ABI PRISM 7000 Sequence Detection System (Applied Biosystems, Foster City, Calif.). […]

A short description of assay [3]: ALERT trial (renal transplantation): lipid parameters after 6 weeks of fluvastatin by OATP-C Pro155Thr genotype. Format: in vivo, human. Further details: TC_Visit 2 / TC_Diff / TG_Visit 2 / TG_Diff / HDL_Visit 2 / HDL_Diff / LDL_Visit 2 / LDL_Diff: unit not given here. The following applies: LSMEAN; for HDL_% change / LDL_% change / TC_% change / TG_% change: 6 weeks; for HDL_Visit 2 / LDL_Visit 2 / TC_Visit 2 / TG_Visit 2: visit 2 (6 weeks of treatment), 40 mg daily; for HDL_Diff / LDL_Diff / TC_Diff / TG_Diff: week 6 minus visit zero. The method, then:
Given the success of statins, and fluvastatin in particular, in lowering lipid levels and reducing cardiovascular disease in the general population, the Assessment of LEscol (Fluvastatin) in Renal Transplantation (ALERT) clinical trial was performed (Holdaas et al., 2003). This multicenter, randomized, double-blind placebo-controlled study followed […] renal transplant patients for 5-6 years. Patients were assigned to a placebo or fluvastatin (40 mg daily for two years, and 80 mg daily for the remainder of the study) group, and monitored in laboratory blood analysis every six months and annual electrocardiography.
The Alert trial was conducted in centres in the Scandinavian countries, UK, Germany, Belgium, Switzerland and Canada, with only minimal number of non-Caucasian patients. The demographic and baseline LDL-C characteristics are similar between the fluvastatin treatment and the placebo groups, as illustrated in Table 5.
Blood samples from each consenting patient were collected at the individual trial sites. The genomic DNA of each patient was extracted from the blood using the […]™ DNA Isolation Kit (D-50K) and then genotyping was performed. Ultimately, 1375 ALERT samples were genotyped: 693 from the Fluvastatin group (of 1050 total patients) and 682 from the placebo group (of 1052 total patients).
The primary efficacy variables tested were: LDL cholesterol at visit 2 (6 weeks of treatment) and Change in LDL cholesterol. The change in LDL cholesterol was calculated as the difference between the week 6 value and the visit zero value, for patients for whom both numbers were available. Additional efficacy variables tested in the full set of genotypes were: • HDL cholesterol at visit 2 (6 Weeks of treatment) • Change in HDL cholesterol • Total cholesterol at visit 2 (6 weeks of treatment) • Change in total cholesterol • Triglycerides at visit 2 (6 weeks of treatment) • Change in triglycerides.
Association tests used categorical genotypes as the independent variable, with no assumption about dominance, and the various efficacy variables as dependent variables. Tests of continuous dependent variables used an ANCOVA analysis. No adjustment was made for multiple testing effect.
The relevant association test for each phenotype was first performed in the Fluvastatin treated patient set. SNP-phenotype associations with a threshold of p<0.05 were then tested separately in the placebo set to determine Fluvastatin-related pharmacogenetic effect.

With `CC(C)c1c(C(=O)Nc2ccccc2)c(-c2ccccc2)c(-c2ccc(F)cc2)n1CC[C@@H](O)C[C@@H](O)CC(=O)O` [Atorvastatin, atorvastatin], the Equipotent dose in assay [1] is 10 mg.

On to `CC(C)n1c(/C=C/C(O)CC(O)CC(=O)O)c(-c2ccc(F)cc2)c2ccccc21` (stereo not shown) [Fluvastatin, fluvastatin], for which the “LDL-C, % Change” value in assay [2] (C463A genotype AA (Thr/Thr), n=15, baseline vs 2 months, mean ± SD) is on record as −41%. In assay [2] (homozygous Thr/Thr vs homozygous wild-type Pro/Pro), the “absolute gain in LDL-C reduction” value is reported as 10%. In addition, in assay [3] (Pro155Thr genotype AA, n=16), the HDL_% change is 18%, the LDL_% change is −34%, the TC_% change is −20% and the TG_% change is listed as 8%. Also, in assay [3] (Pro155Thr genotype AA, n=16), the “HDL_Visit 2” value turned out to be 1.58, the “LDL_Visit 2” value is given as 2.68, the “TC_Visit 2” value amounted to 5.17 and the “TG_Visit 2” value is given as 2.12. In assay [3] (Pro155Thr genotype AA, n=16), this compound returned an HDL_Diff of 0.23, an LDL_Diff of −1.45, a TC_Diff of −1.27 and a TG_Diff of −0.037. In assay [3] (Pro155Thr genotype AC, n=167), the HDL_% change is listed as 8%, the LDL_% change is listed as −23%, the TC_% change is given as −16% and the TG_% change is −3%. For the same compound, in assay [3] (Pro155Thr genotype AC, n=167), the “HDL_Visit 2” value stood at 1.4, the “LDL_Visit 2” value came out at 3.12, the “TC_Visit 2” value came to 5.39 and the “TG_Visit 2” value is reported as 1.98. For the same compound, in assay [3] (Pro155Thr genotype AC, n=167), the HDL_Diff is reported as 0.05, the LDL_Diff was −1.02, the TC_Diff was −1.05 and the TG_Diff is −0.181. In addition, in assay [3] (Pro155Thr genotype CC, n=468), the HDL_% change is 9%, the LDL_% change was −28%, the TC_% change is given as −18% and the TG_% change is on record as −5%. Moreover, in assay [3] (Pro155Thr genotype CC, n=468), the “HDL_Visit 2” value is 1.43, the “LDL_Visit 2” value was found to be 2.91, the “TC_Visit 2” value is listed as 5.21 and the HDL_Diff is 0.08. Also, in assay [3] (Pro155Thr genotype CC, n=468), the LDL_Diff was −1.22, the TC_Diff was −1.23 and the TG_Diff is reported as −0.226. Moreover, the Equipotent dose in assay [1] was 80* mg.

Consider `CC[C@H](C)C(=O)O[C@H]1C[C@@H](C)C=C2C=C[C@H](C)[C@H](CC[C@@H]3C[C@@H](O)CC(=O)O3)[C@H]21` [Lovastatin, lovastatin], for which, in assay [1], the Equipotent dose was 60* mg.
